Measured values from patent EP4279069A1, “A PHARMACEUTICAL COMPOSITION FOR USE IN PREVENTING AND/OR REDUCING HEPATOTOXICITY INDUCED BY ACETAMINOPHEN” (priority 2022, dated 2023).
Where “and” joins values, the source holds several entries; their conditions need not be identical. Equal values may be shown once.

How the values were obtained:
[1] = median value; cited from earlier work
rats = experiment: Toxicology of acetaminophen and/or nefopam: ALAT and ASAT by UV test according to IFCC recommendations; conditions: for ALAT / ASAT: after 4 weeks, mean, groups 2, 3, 5: P 505 for 4 days then 645 for 24 days and/or N 30 for 4 days then 38.6 for 24 days (mg/kg/day); for transaminase levels: rats, substance alone, after 4 weeks of treatment, statement in text
Description: Liver function in rats is measured and the progression of liver damage is monitored to screen for liver disease in invasive and non-invasive manner. Alanine aminotransferase (ALAT) and aspartate aminotransferase (ASAT), two markers of hepatotoxicity was assayed using UV test according to IFCC recommendations.
Control animals (group 1) received the vehicle only (1% Tween 80 in 0.5% Methylcellulose in water).

[2] = cited from earlier work
[3] = system: acetaminophen-induced acute liver injury; experiment: Assessment of acute hepatotoxicity: serum biomarkers of liver injury (ALAT, ASAT), spectrophotometric assay; conditions: for ALAT / ASAT: i.p., 24h after treatment, individual mice
Description: 192 male mice CD-1 (Janvier, France) (12 mice per group) with an age of 7-10 weeks were used. They received the products intraperitoneally (i.p.).
Determination of serum biomarkers: Liver injury was evaluated by measuring the serum levels of alanine aminotransferase (ALAT), and aspartate aminotransferase (ASAT) using a spectrophotometric assay method.
(§1) Protocol: 24h after treatments, animals were euthanized. Plasma and liver were sampled.
Statistical analysis: Results were expressed as means ± standard error of mean (S.E.M.).

[4] = system: acetaminophen-induced acute liver injury; experiment: Assessment of acute hepatotoxicity: histopathological assessment of liver lesions (H&E, necrosis grade); assay type: in vivo, mice CD-1
Description: They received the products intraperitoneally (i.p.).
Histopathological assessment of liver lesions: The histopathological lesions in the liver were evaluated as follows: The collected tissues were processed with standard procedures and embedded in paraffin. The embedded tissues were sectioned into 4 µm thick sections using a microtome. These tissue sections were stained with hematoxylin and eosin (H&E) according to standard techniques and examined by a light microscope.
The severity of necrotic lesions in liver parenchyma was determined. Grade 0: No pathological change Grade 1: Presence of degenerated hepatocytes with only rare foci of necrosis Grade 2: Small area of mild centrilobular necrosis around the central vein Grade 3: Area of mild centrilobular necrosis severer than Grade 2 Grade 4: Centrilobular necrosis severer than Grade 3
as §1

[5] = Vehicle + 200 mg/kg NAC, 200 mg/kg
[6] = Vehicle + 1.1 mg/kg nefopam, 1.1 mg/kg
[7] = Vehicle + 2.2 mg/kg nefopam, 2.2 mg/kg
[8] = Vehicle + 4.4 mg/kg nefopam, 4.4 mg/kg
[9] = nefopam at doses of 17.65 and 35.29 mg/kg (i.p.) co-administered with acetaminophen, mice

For CC(=O)Nc1ccc(O)cc1 [Acetaminophen, N-acetyl-p-aminophenol], the “median effective analgesic dose” value [1] is listed as 500 mg, the ALAT (rats; female rats) is listed as 49 U/L and the ASAT (rats; female rats) is listed as 101 U/L. The ALAT (rats; male rats) was 59 U/L, the ASAT (rats; male rats) was 110 U/L and the transaminase levels (rats) was “increases transaminase levels”. For the same molecule, the transaminase levels (rats; listed as acetaminophen) was “increase in transaminase levels”, the half-life ([2]; individuals without liver injury) was 2 to 3 h and the “bioavailability (drug being absorbed)” value ([2]; taken orally) was ~80%. For the same molecule, the “metabolized through the activity of CYPs (primarily CYP2E) to N-acetyl-p-benzoquinoneimine (NAPQI)” value ([2]; therapeutic doses) was ≤ 5%.
With CC(=O)N[C@@H](CS)C(=O)O [NAC, N-acetylcysteine] the ALAT [3, 5] was 41 U/L (2×) and 26 U/L and 27 U/L and 30 U/L and 58 U/L and 31 U/L and 28 U/L and 14 U/L and 29 U/L and 71 U/L and 51 U/L, the ASAT [3, 5] was 292 U/L and 101 U/L and 114 U/L and 184 U/L and 320 U/L and 160 U/L and 360 U/L and 107 U/L and 283 U/L and 723 U/L and 170 U/L and 183 U/L and the Score ([4]; Vehicle + 200 mg/kg NAC, i.p., 24h after treatment, individual mice) was 0.
With CN1CCOC(c2ccccc2)c2ccccc2C1 (stereo not shown) [nefopam, 5-methyl-1-phenyl-1,3,4,6-tetrahydro-2,5-benzoxazo-cine] the ALAT [3, 6] was 17 U/L and 29 U/L and 55 U/L (2×) and 51 U/L and 23 U/L and 31 U/L and 45 U/L and 19 U/L and 49 U/L and 27 U/L and 28 U/L, the ASAT [3, 6] was 98 U/L and 266 U/L and 180 U/L and 152 U/L and 193 U/L and 181 U/L and 136 U/L and 426 U/L and 110 U/L and 97 U/L and 210 U/L and the ALAT [3, 7] was 30 U/L (2×) and 19 U/L (2×) and 52 U/L and 152 U/L and 24 U/L and 27 U/L and 35 U/L and 60 U/L and 57 U/L and 25 U/L. The ASAT [3, 7] was 111 U/L and 395 U/L and 59 U/L and 325 U/L and 119 U/L and 118 U/L and 221 U/L and 129 U/L and 269 U/L and 785 U/L and 148 U/L, the ALAT [3, 8] was 55 U/L and 25 U/L and 22 U/L and 43 U/L (2×) and 51 U/L and 26 U/L and 28 U/L and 42 U/L and 24 U/L and 71 U/L and 23 U/L and the ASAT [3, 8] was 541 U/L and 128 U/L and 111 U/L and 93 U/L and 151 U/L and 79 U/L and 89 U/L and 531 U/L and 71 U/L and 466 U/L. The acetaminophen-induced hepatotoxicity ([3]; co-administered with acetaminophen 300 mg/kg i.p., mice) was “able to abolish acetaminophen-induced hepatotoxicity”, the “ASAT and ALAT plasma concentration” value ([3]; mouse, in vivo) was “did not influence” and the “ASAT and ALAT elevations” value [3, 9] was “significantly reduced”. It also gave an ALAT (rats; female rats) of 31 U/L, an ASAT (rats; female rats) of 96 U/L and an ALAT (rats; male rats) of 35 U/L. The ASAT (rats; male rats) was 83 U/L, the histological score ([4]; mouse, in vivo) was 0 and the histological score [4, 9] was “significantly reduced”.
